Data taken from patent US9409975B2, “Antibody binding microbial heparin binding motif to retard or prevent microbial biofilm formation on implanted medical devices” (priority 2012, dated 2016).
Entries after “also recorded” stand apart in the source; their conditions may differ.

Test system: Candida albicans BWP17 wt planktonic growth
Assay: Growth curves and doubling times in presence or absence of soluble heparin
Assay type: cell-based
Settings: 100 units/ml heparin
Method: For growth curves in the presence or absence of soluble heparin, a single colony of BWP17 wt was inoculated into 3 ml YPD medium and incubated overnight at 30° C. with shaking at 225 rpm. Overnight cultures were diluted to an OD600 of 0.1 in 5 ml of YPD, RPMI-MOPS, RPMI-HEPES or CSM in a 50 ml conical polypropylene tube. Preservative-free pharmaceutical heparin (1000 units/ml) was added to yield a final concentration of 100 units/ml in the heparin-treated samples. Cultures were grown at 30° C. with shaking and OD600 measured periodically. Doubling times (td) were calculated based on the equation td=ln 2/μ (μ=specific growth rate (48). One hundred units/ml heparin, the concentration recommended to prevent clotting of central venous catheters (20), had no effect on doubling times of planktonic yeast cells grown in YPD, RPMI-HEPES, RPMI-MOPS or CSM, as shown in FIGS. 2A and 2B.
A single copy of Int1, including 1450 bp upstream and 548 bp downstream from the Int1 open reading frame (www.candidagenome.org, Assembly 21), was integrated into the hisG locus of the int1−/− strain VBIDM2 (54) to produce the reconstituted strain KO509. Briefly, a copy of Int1 was generated by PCR, using primers 1 and 2 with BWP17 wt DNA as template and cloned into the SacI/MluI sites of pGEMHIS (51) to create pKO509. pKO509 was digested with SwaI and transformed into VBIDM2 to create the reconstituted strain KO509. PCR-mediated overlap extension mutagenesis (55) was used to produce copies of Int1 mutated at putative heparin binding domains. Briefly, primer pairs 1+3 and 2+4 (or 1+5 and 2+6) were used to produce two overlapping fragments of INT1 in which putative heparin binding domains were mutated (FKKRFFKL (SEQ ID NO: 2)→FKAAFFKL (SEQ ID NO: 53) or KQKKHQ (SEQ ID NO: 64)→KQAAHQ (SEQ ID NO: 63)), and a full length mutated sequence generated in a third […] using primers 1+2 with the fragments as template. […] Percent binding of each mutant to heparin in the ELISA assay was compared to the wild type according to the formula [Absorbance595 mutant]/[Absorbance595 wild type]×100.

Substance: heparin
- growth curves in presence or absence of soluble heparin: identical
- doubling times of wild type, Δint1 mutant, INT1 reintegrant and Motif 1, Motif 4, Motifs 1 and 4 reintegrants with and without heparin (30° C., RPMI-HEPES): no difference
- effect on doubling times of planktonic yeast cells (30° C., YPD, RPMI-HEPES, RPMI-MOPS or CSM): no effect; also recorded: identical
